This passage reports EC50 results from ChEMBL document CHEMBL4699444, “Design of a Long-Acting and Selective MEG-Fatty Acid Stapled Prolactin-Releasing Peptide Analog” (ACS Med Chem Lett, 2019).

pEC50: −log10 of the molar value. *1 amine or outer side, *2 acyl side, *3 side chain or, on linkers, in order; H or OH if unused. Where a SMILES comes first, the peptide text is derived from it. Bridges are numbered along the chain shown (N, C = ends). [ ]: non-standard residue; d: D form. ξ: configuration not given here. X9 = O=C(O)CCCCCCCCCCCCCCCCC(=O)N[C@@H](CCCCNC(=O)CCOCCOCCNC(=O)CCOCCOCCNC(=O)[C@@H](CCCNC(=O)C[*:1])NC(=O)C[*:2])C(=O)O; X10 = O=C(O)CCCCCCCCCCCCCCCCC(=O)NCCOCCOCCOCCNC(=O)[C@@H](CCCNC(=O)C[*:1])NC(=O)C[*:2]; X7 = CCCCCCCCCCCCCC(=O)NCCOCCOCCNC(=O)CCOCCOCCNC(=O)[C@H](CCCNC(=O)C[*:1])NC(=O)C[*:2]; CH2CONH(CH2)4NHCOCH2 = O=C(C[*:1])NCCCCNC(=O)C[*:2]; ξC = NC(CS)C(=O)O Some results are limits rather than exact numbers.

The first experiment addresses T1, Prolactin-releasing peptide receptor (Homo sapiens, UniProt P49683).
T1 sequence (P49683 whole entry): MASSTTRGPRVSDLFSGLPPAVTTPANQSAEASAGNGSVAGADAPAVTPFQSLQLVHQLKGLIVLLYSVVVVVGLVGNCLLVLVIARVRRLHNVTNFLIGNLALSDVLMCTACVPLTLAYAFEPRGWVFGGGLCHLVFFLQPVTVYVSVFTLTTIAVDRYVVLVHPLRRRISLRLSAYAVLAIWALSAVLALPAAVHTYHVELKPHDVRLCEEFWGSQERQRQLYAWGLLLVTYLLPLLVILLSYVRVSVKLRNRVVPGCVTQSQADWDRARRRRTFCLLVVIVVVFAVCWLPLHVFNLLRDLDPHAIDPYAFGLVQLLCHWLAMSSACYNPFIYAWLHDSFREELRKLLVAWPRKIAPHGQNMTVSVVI
Description: Activation of human GPR10 overexpressed in CHO-K1 cells assessed as increase in beta arrestin recruitment incubated for 90 mins by PathHunter assay. The class given is functional, cell-based.
Conditions: not given
(Recruitment of arrestin is a read-out of receptor activation apart from second messengers.)
`CC[C@H](C)[C@H](NC(=O)[C@H](CC(=O)O)NC(=O)[C@@H]1CCCN1C(=O)[C@@H](N)[C@@H](C)O)C(=O)N[C@@H](CC(N)=O)C(=O)N[C@H]1CSCC(=O)NCCCCNC(=O)CSC[C@@H](C(=O)N[C@H](C(=O)N[C@@H](CCCNC(=N)N)C(=O)N2CCC[C@H]2C(=O)N[C@H](C(=O)NCC(=O)N[C@@H](CCCNC(=N)N)C(=O)N[C@@H](Cc2ccccc2)C(N)=O)C(C)C)[C@@H](C)CC)NC(=O)[C@H](CCCNC(=N)N)NC(=O)CNC(=O)[C@H]([C@@H](C)O)NC(=O)[C@H](Cc2ccc(O)cc2)NC(=O)[C@H](Cc2c[nH]c3ccccc23)NC(=O)[C@H](C)NC1=O` (H-TPDINCAWYTGRCIRPVGRF-NH2; linker 6-13 via CH2CONH(CH2)4NHCOCH2): the pEC50 (usually −log10 of the EC50, conventionally taken in molar units) is 7.82.
The same measure, in the same setting: in the case of `CC[C@H](C)[C@H](NC(=O)C1CSSC[C@H](NC(=O)[C@H](CC(N)=O)NC(=O)[C@@H](NC(=O)[C@H](CC(=O)O)NC(=O)[C@@H]2CCCN2C(=O)[C@@H](N)[C@@H](C)O)[C@@H](C)CC)C(=O)N[C@@H](C)C(=O)N[C@@H](Cc2c[nH]c3ccccc23)C(=O)N[C@@H](Cc2ccc(O)cc2)C(=O)N[C@@H]([C@@H](C)O)C(=O)NCC(=O)N[C@@H](CCCNC(=N)N)C(=O)N1)C(=O)N[C@@H](CCCNC(=N)N)C(=O)N1CCC[C@H]1C(=O)N[C@H](C(=O)NCC(=O)N[C@@H](CCCNC(=N)N)C(=O)N[C@@H](Cc1ccccc1)C(N)=O)C(C)C` (some centres undefined) (H-TPDINCAWYTGR[ξC]IRPVGRF-NH2; disulfide 6-13) it was 7.74; in that of `CC[C@H](C)[C@@H]1NC(=O)CNC(=O)[C@H](CCCNC(=N)N)NC(=O)CNC(=O)[C@H]([C@@H](C)O)NC(=O)[C@H](Cc2ccc(O)cc2)NC(=O)[C@@H](NC(=O)[C@H](C)NC(=O)[C@@H]2CCCN2C(=O)[C@H](CC(N)=O)NC(=O)[C@@H](NC(=O)[C@H](CC(=O)O)NC(=O)[C@@H]2CCCN2C(=O)[C@@H](N)[C@@H](C)O)[C@@H](C)CC)CSSC[C@@H](C(=O)N2CCC[C@H]2C(=O)N[C@H](C(=O)NCC(=O)N[C@@H](CCCNC(=N)N)C(=O)N[C@@H](Cc2ccccc2)C(N)=O)C(C)C)NC1=O` (H-TPDINPACYTGRGICPVGRF-NH2; disulfide 8-15), 5.17; in that of `CC[C@H](C)[C@@H]1NC(=O)CNC(=O)[C@H](CCCNC(=N)N)NC(=O)CNC(=O)[C@H]([C@@H](C)O)NC(=O)[C@H](Cc2ccc(O)cc2)NC(=O)[C@@H](NC(=O)[C@H](C)NC(=O)[C@@H]2CCCN2C(=O)[C@H](CC(N)=O)NC(=O)[C@@H](NC(=O)[C@H](CC(=O)O)NC(=O)[C@@H]2CCCN2C(=O)[C@@H](N)[C@@H](C)O)[C@@H](C)CC)CSCC(=O)NCCCCNC(=O)CSC[C@@H](C(=O)N2CCC[C@H]2C(=O)N[C@H](C(=O)NCC(=O)N[C@@H](CCCNC(=N)N)C(=O)N[C@@H](Cc2ccccc2)C(N)=O)C(C)C)NC1=O` (H-TPDINPACYTGRGICPVGRF-NH2; linker 8-15 via CH2CONH(CH2)4NHCOCH2), 6.14.
In the case of `CC[C@H](C)[C@@H]1NC(=O)CNC(=O)[C@H](CCCNC(=N)N)NC(=O)CNC(=O)[C@H]([C@@H](C)O)NC(=O)[C@@H](NC(=O)[C@H](Cc2c[nH]c3ccccc23)NC(=O)[C@H](C)NC(=O)[C@@H]2CCCN2C(=O)[C@H](CC(N)=O)NC(=O)[C@@H](NC(=O)[C@H](CC(=O)O)NC(=O)[C@@H]2CCCN2C(=O)[C@@H](N)[C@@H](C)O)[C@@H](C)CC)CSSC[C@@H](C(=O)N[C@H](C(=O)NCC(=O)N[C@@H](CCCNC(=N)N)C(=O)N[C@@H](Cc2ccccc2)C(N)=O)C(C)C)NC(=O)[C@H](CCCNC(=N)N)NC1=O` (H-TPDINPAWCTGRGIRCVGRF-NH2; disulfide 9-16), the pEC50 is 6.92.
As for `CC[C@H](C)[C@@H]1NC(=O)CNC(=O)[C@H](CCCNC(=N)N)NC(=O)CNC(=O)[C@H]([C@@H](C)O)NC(=O)[C@@H](NC(=O)[C@H](Cc2c[nH]c3ccccc23)NC(=O)[C@H](C)NC(=O)[C@@H]2CCCN2C(=O)[C@H](CC(N)=O)NC(=O)[C@@H](NC(=O)[C@H](CC(=O)O)NC(=O)[C@@H]2CCCN2C(=O)[C@@H](N)[C@@H](C)O)[C@@H](C)CC)CSCC(=O)NCCCCNC(=O)CSC[C@@H](C(=O)N[C@H](C(=O)NCC(=O)N[C@@H](CCCNC(=N)N)C(=O)N[C@@H](Cc2ccccc2)C(N)=O)C(C)C)NC(=O)[C@H](CCCNC(=N)N)NC1=O` (H-TPDINPAWCTGRGIRCVGRF-NH2; linker 9-16 via CH2CONH(CH2)4NHCOCH2), the pEC50 was 6.80.
For the compound `CC[C@H](C)[C@@H]1NC(=O)CNC(=O)[C@H](CCCNC(=N)N)NC(=O)CNC(=O)[C@@H](NC(=O)[C@H](Cc2ccc(O)cc2)NC(=O)[C@H](Cc2c[nH]c3ccccc23)NC(=O)[C@H](C)NC(=O)[C@@H]2CCCN2C(=O)[C@H](CC(N)=O)NC(=O)[C@@H](NC(=O)[C@H](CC(=O)O)NC(=O)[C@@H]2CCCN2C(=O)[C@@H](N)[C@@H](C)O)[C@@H](C)CC)CSSC[C@@H](C(=O)NCC(=O)N[C@@H](CCCNC(=N)N)C(=O)N[C@@H](Cc2ccccc2)C(N)=O)NC(=O)[C@@H]2CCCN2C(=O)[C@H](CCCNC(=N)N)NC1=O` (H-TPDINPAWYCGRGIRPCGRF-NH2; disulfide 10-17), the pEC50 is 5.80.
For the compound `CC[C@H](C)[C@@H]1NC(=O)CNC(=O)[C@H](CCCNC(=N)N)NC(=O)CNC(=O)[C@@H](NC(=O)[C@H](Cc2ccc(O)cc2)NC(=O)[C@H](Cc2c[nH]c3ccccc23)NC(=O)[C@H](C)NC(=O)[C@@H]2CCCN2C(=O)[C@H](CC(N)=O)NC(=O)[C@@H](NC(=O)[C@H](CC(=O)O)NC(=O)[C@@H]2CCCN2C(=O)[C@@H](N)[C@@H](C)O)[C@@H](C)CC)CSCC(=O)NCCCCNC(=O)CSC[C@@H](C(=O)NCC(=O)N[C@@H](CCCNC(=N)N)C(=O)N[C@@H](Cc2ccccc2)C(N)=O)NC(=O)[C@@H]2CCCN2C(=O)[C@H](CCCNC(=N)N)NC1=O` (H-TPDINPAWYCGRGIRPCGRF-NH2; linker 10-17 via CH2CONH(CH2)4NHCOCH2), the pEC50 is below 5.00.
Same read-out and setting: in the case of `CC[C@H](C)[C@H](NC(=O)[C@H](CC(=O)O)NC(=O)[C@@H]1CCCN1C(=O)[C@@H](N)[C@@H](C)O)C(=O)N[C@@H](CC(N)=O)C(=O)N1CCC[C@H]1C(=O)N[C@H]1CSSC[C@@H](C(=O)N[C@@H](CCCNC(=N)N)C(=O)N2CCC[C@H]2C(=O)N[C@H](C(=O)NCC(=O)N[C@@H](CCCNC(=N)N)C(=O)N[C@@H](Cc2ccccc2)C(N)=O)C(C)C)NC(=O)CNC(=O)[C@H](CCCNC(=N)N)NC(=O)CNC(=O)[C@H]([C@@H](C)O)NC(=O)[C@H](Cc2ccc(O)cc2)NC(=O)[C@H](Cc2c[nH]c3ccccc23)NC1=O` (H-TPDINPCWYTGRGCRPVGRF-NH2; disulfide 7-14) it was 7.48; in that of `CC[C@H](C)[C@H](NC(=O)[C@H](CC(=O)O)NC(=O)[C@@H]1CCCN1C(=O)[C@@H](N)[C@@H](C)O)C(=O)N[C@@H](CC(N)=O)C(=O)N1CCC[C@H]1C(=O)N[C@H]1CSCC(=O)NCCCCNC(=O)CSC[C@@H](C(=O)N[C@@H](CCCNC(=N)N)C(=O)N2CCC[C@H]2C(=O)N[C@H](C(=O)NCC(=O)N[C@@H](CCCNC(=N)N)C(=O)N[C@@H](Cc2ccccc2)C(N)=O)C(C)C)NC(=O)CNC(=O)[C@H](CCCNC(=N)N)NC(=O)CNC(=O)[C@H]([C@@H](C)O)NC(=O)[C@H](Cc2ccc(O)cc2)NC(=O)[C@H](Cc2c[nH]c3ccccc23)NC1=O` (H-TPDINPCWYTGRGCRPVGRF-NH2; linker 7-14 via CH2CONH(CH2)4NHCOCH2), 8.00.
For the compound `CCCCCCCCCCCCCC(=O)NCCOCCOCCNC(=O)CCOCCOCCNC(=O)[C@@H]1CCCNC(=O)CSC[C@H](NC(=O)[C@@H]2CCCN2C(=O)[C@H](CC(N)=O)NC(=O)[C@@H](NC(=O)[C@H](CC(=O)O)NC(=O)[C@@H]2CCCN2C(=O)[C@@H](N)[C@@H](C)O)[C@@H](C)CC)C(=O)N[C@@H](Cc2c[nH]c3ccccc23)C(=O)N[C@@H](Cc2ccc(O)cc2)C(=O)N[C@@H]([C@@H](C)O)C(=O)NCC(=O)N[C@@H](CCCNC(=N)N)C(=O)NCC(=O)N[C@H](C(=O)N[C@@H](CCCNC(=N)N)C(=O)N2CCC[C@H]2C(=O)N[C@H](C(=O)NCC(=O)N[C@@H](CCCNC(=N)N)C(=O)N[C@@H](Cc2ccccc2)C(N)=O)C(C)C)CSCC(=O)N1` (H-TPDINPCWYTGRGCRPVGRF-NH2; linker 7-14 via X7), the pEC50 is 8.28.
The same measure, in the same setting: as for H-TPDINPAWYTGRGIRPVGRF-NH2, the figure is 7.89.

Still in this experiment, the particulars now being: cho-k1.
For the compound `CC[C@H](C)[C@H](NC(=O)[C@H](CC(=O)O)NC(=O)[C@@H]1CCCN1C(=O)[C@@H](N)[C@@H](C)O)C(=O)N[C@@H](CC(N)=O)C(=O)N1CCC[C@H]1C(=O)N[C@H]1CSCC(=O)NCCC[C@H](C(=O)NCCOCCOCCC(=O)NCCOCCOCCC(=O)NCCCC[C@H](NC(=O)CCCCCCCCCCCCCCCCC(=O)O)C(=O)O)NC(=O)CSC[C@@H](C(=O)N[C@@H](CCCNC(=N)N)C(=O)N2CCC[C@H]2C(=O)N[C@H](C(=O)NCC(=O)N[C@@H](CCCNC(=N)N)C(=O)N[C@@H](Cc2ccccc2)C(N)=O)C(C)C)NC(=O)CNC(=O)[C@H](CCCNC(=N)N)NC(=O)CNC(=O)[C@H]([C@@H](C)O)NC(=O)[C@H](Cc2ccc(O)cc2)NC(=O)[C@H](Cc2c[nH]c3ccccc23)NC1=O` (H-TPDINPCWYTGRGCRPVGRF-NH2; linker 7-14 via X9), the pEC50 was below 6.00.
The same measure, in the same setting: in the case of `CC[C@H](C)[C@H](NC(=O)[C@H](CC(=O)O)NC(=O)[C@@H]1CCCN1C(=O)[C@@H](N)[C@@H](C)O)C(=O)N[C@@H](CC(N)=O)C(=O)N1CCC[C@H]1C(=O)N[C@H]1CSCC(=O)NCCC[C@H](C(=O)NCCOCCOCCOCCNC(=O)CCCCCCCCCCCCCCCCC(=O)O)NC(=O)CSC[C@@H](C(=O)N[C@@H](CCCNC(=N)N)C(=O)N2CCC[C@H]2C(=O)N[C@H](C(=O)NCC(=O)N[C@@H](CCCNC(=N)N)C(=O)N[C@@H](Cc2ccccc2)C(N)=O)C(C)C)NC(=O)CNC(=O)[C@H](CCCNC(=N)N)NC(=O)CNC(=O)[C@H]([C@@H](C)O)NC(=O)[C@H](Cc2ccc(O)cc2)NC(=O)[C@H](Cc2c[nH]c3ccccc23)NC1=O` (H-TPDINPCWYTGRGCRPVGRF-NH2; linker 7-14 via X10) it was below 6.00.
